Laboratory results taken from publication PMC7762828 (Journal of medicinal chemistry, 2020).

Key:
Human recombinant HDAC4 = Human recombinant HDAC4 (Homo sapiens, UniProt P56524); assay: HDAC4 inhibition assay; assay type: biochemical; conditions: selectivity for HDAC6 over HDAC4
HL60 cells [1] = assay: Western blot of protein acetylation in HL60 cells; assay type: cell-based; conditions: HL60, 24 h, two concentrations, immunoblot
leukemia cell lines = assay: CellTiter-Glo cell viability assay, panel of seven leukemia cell lines; assay type: cell-based; conditions: 72 h, read-out: cell viability IC50
HL60 cells [2] = assay: Annexin V-propidium iodide apoptosis assay; assay type: cell-based; conditions: HL60, 24 h
T-ALL cell line (HSB-2) = assay: Combinatorial high throughput drug screen; assay type: cell-based

Sequence of Human recombinant HDAC4 (P56524 whole entry): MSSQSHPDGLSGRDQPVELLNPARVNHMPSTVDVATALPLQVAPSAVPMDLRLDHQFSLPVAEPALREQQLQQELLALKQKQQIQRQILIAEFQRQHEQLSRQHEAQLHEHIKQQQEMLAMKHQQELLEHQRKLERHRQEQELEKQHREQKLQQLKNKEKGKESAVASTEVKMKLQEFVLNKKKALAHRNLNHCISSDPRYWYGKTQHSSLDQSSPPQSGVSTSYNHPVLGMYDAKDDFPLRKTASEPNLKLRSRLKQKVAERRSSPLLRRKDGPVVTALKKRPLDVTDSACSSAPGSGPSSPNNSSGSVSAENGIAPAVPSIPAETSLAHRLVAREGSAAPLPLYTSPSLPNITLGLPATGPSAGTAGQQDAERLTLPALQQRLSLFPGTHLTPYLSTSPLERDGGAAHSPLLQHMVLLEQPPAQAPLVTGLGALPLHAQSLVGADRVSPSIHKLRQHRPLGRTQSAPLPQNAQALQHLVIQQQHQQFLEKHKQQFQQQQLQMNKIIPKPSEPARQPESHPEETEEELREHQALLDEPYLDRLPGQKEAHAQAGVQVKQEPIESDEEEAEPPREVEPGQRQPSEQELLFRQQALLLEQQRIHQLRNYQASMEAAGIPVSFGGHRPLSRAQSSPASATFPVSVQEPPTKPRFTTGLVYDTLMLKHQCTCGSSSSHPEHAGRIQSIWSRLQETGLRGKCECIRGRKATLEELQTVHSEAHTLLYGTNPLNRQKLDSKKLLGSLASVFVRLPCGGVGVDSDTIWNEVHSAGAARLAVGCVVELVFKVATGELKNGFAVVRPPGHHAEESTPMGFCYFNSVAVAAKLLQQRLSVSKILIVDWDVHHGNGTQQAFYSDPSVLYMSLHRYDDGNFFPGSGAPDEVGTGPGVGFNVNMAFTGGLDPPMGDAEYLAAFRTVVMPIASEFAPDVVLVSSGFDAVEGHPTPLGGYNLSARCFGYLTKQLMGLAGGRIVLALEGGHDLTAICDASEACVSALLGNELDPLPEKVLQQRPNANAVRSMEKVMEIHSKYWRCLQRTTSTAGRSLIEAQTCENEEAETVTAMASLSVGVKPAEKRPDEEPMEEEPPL

O=C(NO)c1ccc(CN(Cc2nnnn2Cc2ccccc2)C(=O)c2ccccc2C(F)(F)F)cc1 [6l] was tested, and the “SI (HDAC4 vs HDAC6)” value (Human recombinant HDAC4) was 1857, the “acetylation status of histone H3 (ac-H3), marker for class I HDAC inhibition” value (HL60 cells [1]) was “unaffected” and the “α-tubulin acetylation (ac-α-tubulin), marker for HDAC6 inhibition” value (HL60 cells [1]) was “induced α-tubulin acetylation”. For the same compound, the IC50 (leukemia cell lines) was greater than 20 µM, the “cytotoxic effect as single agent (number of viable cells)” value (HL60 cells [2]; 6l alone at 2.5 or 5 μM) was “no cytotoxic effect” and the “apoptosis induction in combination with BTZ (late apoptotic/dead cells)” value (HL60 cells [2]; combination with bortezomib (BTZ) versus BTZ alone) was “augmented the apoptosis induction of BTZ”. The “cytotoxic activity in combination with anthracyclines” value (T-ALL cell line (HSB-2); HSB-2, 6l […] and 5 μM with epirubicin (Epi) and daunorubicin (Dauno)) was “significant enhancement of cytotoxic activity” and the “cytotoxicity as single agent” value (T-ALL cell line (HSB-2); HSB-2, 6l alone) was “unable to affect the cytotoxicity”.
